The subject of one experiment is RCC4. The experiment is described as follows: XTT IC50 / viability assay, RCC4 cells. The experiment is classed as cell-based, human. Particulars: Homo sapiens, RCC4, 96 h; XTT assay, four days. The protocol: (§1) RCC4 parental and RCC4 with VHL-reintroduced (RCC4/VHL), SN12C and SN12C-CSCG-VHL shRNA were maintained in DMEM supplemented with 10% FCS.
(§2) IC50 values for compounds were determined by XTT assay. For 2,3-bis[2-methoxy-4-nitro-5-sulfophenyl]-2H-tetrazolium-5-carboxanilide inner salt (XTT) assays, five thousand cells were plated in 96-well plates. The next day, vehicle or drug was added to each well and incubated for four days. Media was aspirated and phenol red-free medium with 0.3 mg/mL XTT and 2.65 ug/mL N-methyl dibenzopyrazine methyl sulfate was added. This was incubated at 37° C. for 1-2 hours and absorbance was read at 450 nm. IC50 values for each compound were calculated using linear interpolation.
(§3) For 2,3-bis[2-methoxy-4-nitro-5-sulfophenyl]-2H-tetrazolium-5-carboxanilide (XTT) assays, five thousand cells were plated in 96-well plates. The next day, vehicle (DMSO) or drug was added by serial dilution. Four days later, media were aspirated, XTT solution (0.3 mg/ml of XTT (Sigma), 2.65 mg/ml N-methyl dibenxopyrazine methyl sulfate (Simga) in phenol red-free media) was added, and the plates were incubated at 37° C. for 1-2 hours. Metabolism of XTT was quantified by measuring the absorbance at 450 nm. IC50s were calculated using linear interpolation. For clonogenic survival assays, three hundred cells were plated per 60 mm tissue culture dish. The cells were allowed to attach overnight and then treated with vehicle or drug for 14 days. Colonies were fixed and stained with crystal violet (0.1% crystal violet in 95% ethanol). All conditions were measured in triplicate and each experiment was done in duplicate or triplicate. To determine necrosis, cells were treated with drug for a given time point. Media and cells were collected, centrifugated, and resuspended in 0.4% trypan blue (Invitrogen). Live and dead cells were counted on a hematocytometer.

In another experiment the test system is RCC4/VHL. In words: XTT IC50 assay, selectivity RCC4 versus RCC4 with VHL-reintroduced. Type of experiment: cell-based, human. The following applies: selectivity ratio of XTT IC50 values, RCC4 vs RCC4/VHL. The protocol:
as §1, §2, §3
For orientation: Tetrazolium assays rely on reduction of a dye to a coloured formazan, in cell work by metabolically active cells.

One may read the IC50 as the concentration that gives 50% inhibition.

In the experiment on RCC4, `CCN(CC)Cc1ccc(S(=O)(=O)NCc2ccc(C(=O)Nc3cccnc3)cc2)cc1` [Example 78, 4-{[({4-[(Diethylamino)methyl]phenyl}sulfonyl)amino]methyl}-N-(3-pyridinyl)benzamide] gave an IC50 of less than 1 µM. Besides, the “Ratio (RCC4:RCC/VHL)” value in the experiment with RCC4/VHL was “c (“c” reflects a ratio of >100)”.

As to `O=C(Nc1cccnc1)c1ccc(CNS(=O)(=O)c2ccc(Cl)cc2)cc1` [Example 44, 4-((4-Chlorophenylsulfonamido)methyl)-N-(pyridin-3-yl)benzamide], the IC50 in the experiment on RCC4 fell in the range of 1 to 20 µM. For the same compound, in the experiment on RCC4/VHL, the “Ratio (RCC4:RCC/VHL)” value was “b (“b” reflects from 10 to 100)”.

As for `O=C(Nc1cccnc1)c1ccc(CNS(=O)(=O)c2ccc(CCCO)cc2)cc1` [Example 104, 4-[({[4-(3-Hydroxypropyl)phenyl]sulfonyl}amino)methyl]-N-(3-pyridinyl)benzamide], the IC50 with RCC4 is less than 1 µM. Further, the “Ratio (RCC4:RCC/VHL)” value with RCC4/VHL was “c (“c” reflects a ratio of >100)”.

`Cc1nc(-c2ccc(S(=O)(=O)NCc3ccc(C(=O)Nc4cccnc4)cc3)cc2)cs1` [Example 59, 4-[({[4-(2-Methyl-1,3-thiazol-4-yl)phenyl]sulfonyl}amino)methyl]-N-(3-pyridinyl)benzamide] registered an IC50 with RCC4 of 1 to 20 µM. Also, in the experiment with RCC4/VHL, the “Ratio (RCC4:RCC/VHL)” value is “b (“b” reflects from 10 to 100)”.

For the compound `Cc1cc(C)cc(COC(=O)NCc2ccc(C(=O)Nc3cccnc3)cc2)c1` [Compound A, reference compound], the IC50 in the experiment with RCC4 was more than 20 µM. In the experiment on RCC4/VHL, the “Ratio (RCC4:RCC/VHL)” value is given as “a (“a” reflects a ratio of RCC4/RCC-VHL+ ranging from 1 to 10)”.

In the case of `Cc1ccc(S(=O)(=O)NCc2ccc(C(=O)Nc3cccnc3)cc2)cc1` [Example 36, 4-((4-Methylphenylsulfonamido)methyl)-N-(pyridin-3-yl)benzamide], the IC50 with RCC4 was in the range of 1 to 20 µM. Also, the “Ratio (RCC4:RCC/VHL)” value in the experiment on RCC4/VHL is reported as “b (“b” reflects from 10 to 100)”.

Regarding `CN(C)CCNc1ccc(S(=O)(=O)NCc2ccc(C(=O)Nc3cccnc3)cc2)cc1` [Example 133, 4-({[(4-{[2-(Dimethylamino)ethyl]amino}phenyl)sulfonyl]amino}methyl)-N-(3-pyridinyl)benzamide], in the experiment with RCC4, the IC50 is less than 1 µM. Besides, the “Ratio (RCC4:RCC/VHL)” value in the experiment on RCC4/VHL is “c (“c” reflects a ratio of >100)”.

In turn, `O=C(Nc1ccncc1)c1ccc(CNS(=O)(=O)c2ccc(F)cc2)cc1` [Example 97, 4-[(4-Fluorophenylsulfonamido)methyl]-N-(4-pyridinyl)benzamide] yielded an IC50 with RCC4 of more than 20 µM.

Turning to `N#Cc1ccccc1S(=O)(=O)NCc1ccc(C(=O)Nc2cccnc2)cc1` [Example 16, 4-((2-Cyanophenylsulfonamido)methyl)-N-(pyridin-3-yl)benzamide], the IC50 in the experiment with RCC4 is more than 20 µM. The “Ratio (RCC4:RCC/VHL)” value in the experiment on RCC4/VHL is “a (“a” reflects a ratio of RCC4/RCC-VHL+ ranging from 1 to 10)”.

The compound `O=C(Nc1cccnc1)c1ccc(CNS(=O)(=O)c2ccc(I)cc2)cc1` [Example 94, 4-((4-Iodophenylsulfonamido)methyl)-N-(pyridin-3-yl)benzamide] came in with an IC50 in the experiment with RCC4 of 1 to 20 µM. Besides, the “Ratio (RCC4:RCC/VHL)” value in the experiment on RCC4/VHL is recorded as “a (“a” reflects a ratio of RCC4/RCC-VHL+ ranging from 1 to 10)”.

Regarding `O=C(Nc1cccnc1)c1ccc(CNS(=O)(=O)c2ccc(N3CCCCC3)cc2)cc1` [Example 128, 4-[({[4-(1-Piperidinyl)phenyl]sulfonyl}amino)methyl]-N-(3-pyridinyl)benzamide], the IC50 with RCC4 is less than 1 µM. For the same compound, in the experiment on RCC4/VHL, the “Ratio (RCC4:RCC/VHL)” value was “c (“c” reflects a ratio of >100)”.

Turning to `O=C(Nc1cccnc1)c1ccc(CNS(=O)(=O)c2ccccc2)cc1` [Example 2, 4-(Phenylsulfonamidomethyl)-N-(pyridin-3-yl)benzamide], the IC50 in the experiment with RCC4 is 1 to 20 µM. In the experiment on RCC4/VHL, the “Ratio (RCC4:RCC/VHL)” value was “a (“a” reflects a ratio of RCC4/RCC-VHL+ ranging from 1 to 10)”.

The compound `O=C(Nc1cccnc1)c1ccc(CNS(=O)(=O)c2ccc(F)cc2)cc1` [Example 43, 4-((4-Fluorophenylsulfonamido)methyl)-N-(pyridin-3-yl)benzamide] had an IC50 with RCC4 of 1 to 20 µM. In addition, in the experiment on RCC4/VHL, the “Ratio (RCC4:RCC/VHL)” value is listed as “a (“a” reflects a ratio of RCC4/RCC-VHL+ ranging from 1 to 10)”.

As for `O=C(Nc1cccnc1)c1ccc(CNS(=O)(=O)c2ccc(C(F)(F)F)cc2)cc1` [Example 49, N-(Pyridin-3-yl)-4-((4-(trifluoromethyl)phenylsulfonamido)methyl)benzamide], the IC50 in the experiment on RCC4 fell in the range of 1 to 20 µM. The “Ratio (RCC4:RCC/VHL)” value in the experiment on RCC4/VHL is listed as “a (“a” reflects a ratio of RCC4/RCC-VHL+ ranging from 1 to 10)”.

As for `O=C(Nc1cccnc1)c1ccc(CNS(=O)(=O)c2ccc(OC(F)(F)F)cc2)cc1` [Example 46, N-(Pyridin-3-yl)-4-((4-(trifluoromethoxy)phenylsulfonamido)methyl)benzamide], the IC50 with RCC4 is 1 to 20 µM. For the same compound, the “Ratio (RCC4:RCC/VHL)” value in the experiment with RCC4/VHL is reported as “b (“b” reflects from 10 to 100)”.

In turn, `Cc1nnc(-c2cccc(S(=O)(=O)NCc3ccc(C(=O)Nc4cccnc4)cc3)c2)o1` [Example 29, 4-[({[3-(5-Methyl-1,3,4-oxadiazol-2-yl)phenyl]sulfonyl}amino)methyl]-N-(3-pyridinyl)benzamide] had an IC50 in the experiment with RCC4 of 1 to 20 µM. For the same compound, in the experiment with RCC4/VHL, the “Ratio (RCC4:RCC/VHL)” value is given as “b (“b” reflects from 10 to 100)”.

For the compound `O=C(Nc1cccnc1)c1ccc(CNS(=O)(=O)c2ccc(-c3cn(Cc4ccccc4)nn3)cc2)cc1` [Example 102, 4-[({[4-(1-benzyl-1H-1,2,3-triazol-4-yl)phenyl]sulfonyl}amino)methyl]-N-(3-pyridinyl)benzamide], in the experiment on RCC4, the IC50 was more than 20 µM. Also, the “Ratio (RCC4:RCC/VHL)” value in the experiment on RCC4/VHL is reported as “a (“a” reflects a ratio of RCC4/RCC-VHL+ ranging from 1 to 10)”.

For the compound `COc1ccc(S(=O)(=O)NCc2ccc(C(=O)Nc3cccnc3)cc2)cc1C(C)(C)C` [Example 62, 4-((3-tert-Butyl-4-methoxyphenylsulfonamido)methyl)-N-(pyridin-3-yl)benzamide], in the experiment on RCC4, the IC50 was less than 1 µM. The “Ratio (RCC4:RCC/VHL)” value in the experiment with RCC4/VHL was “c (“c” reflects a ratio of >100)”.

In turn, `N#Cc1ccc(S(=O)(=O)NCc2ccc(C(=O)Nc3cccnc3)cc2)cc1` [Example 50, 4-((4-Cyanophenylsulfonamido)methyl)-N-(pyridin-3-yl)benzamide] gave an IC50 with RCC4 of 1 to 20 µM. Besides, the “Ratio (RCC4:RCC/VHL)” value in the experiment with RCC4/VHL was “a (“a” reflects a ratio of RCC4/RCC-VHL+ ranging from 1 to 10)”.

For `O=C(Nc1cccnc1)c1ccc(CNS(=O)(=O)c2cccc(-c3ncccn3)c2)cc1` [Example 27, 4-[({[3-(2-Pyrimidinyl)phenyl]sulfonyl}amino)methyl]-N-(3-pyridinyl)benzamide], the IC50 with RCC4 is less than 1 µM. The “Ratio (RCC4:RCC/VHL)” value in the experiment on RCC4/VHL is given as “b (“b” reflects from 10 to 100)”.

`CN(C)CC#Cc1ccc(S(=O)(=O)NCc2ccc(C(=O)Nc3cccnc3)cc2)cc1` [Example 137, 4-{[({4-[3-(Dimethylamino)-1-propynyl]phenyl}sulfonyl)amino]methyl}-N-(3-pyridinyl)benzamide] yielded an IC50 in the experiment with RCC4 of less than 1 µM. Further, the “Ratio (RCC4:RCC/VHL)” value in the experiment on RCC4/VHL is “b (“b” reflects from 10 to 100)”.

Consider `NCCOCCOCCOCCOCCOCCOCC#Cc1ccc(S(=O)(=O)NCc2ccc(C(=O)Nc3ccncc3)cc2)cc1` [Example 105, 4-[({[4-(21-Amino-4,7,10,13,16,19-hexaoxahenicos-1-yn-1-yl)phenyl]sulfonyl}amino)methyl]-N-(4-pyridinyl)benzamide], for which, in the experiment on RCC4, the 50% inhibitory concentration (IC50) was more than 20 µM.

`O=C(Nc1cccnc1)c1cccc(CNS(=O)(=O)c2ccccc2)c1` [Example 92, 3-[(Phenylsulfonamido)methyl]-N-(3-pyridinyl)benzamide] showed an IC50 in the experiment on RCC4 of more than 20 µM.

Turning to `CC(C)(C)c1ccc(COC(=O)NCc2ccc(C(=O)Nc3cccnc3)cc2)cc1` [Compound D, reference compound], in the experiment with RCC4, the IC50 was more than 20 µM.

Regarding `O=C(Nc1ccncc1)c1ccc(CNS(=O)(=O)c2ccc(Br)cc2)cc1` [Example 96, 4-[(4-Bromophenylsulfonamido)methyl]-N-(4-pyridinyl)benzamide], in the experiment on RCC4, the IC50 is more than 20 µM.

Regarding `CC(C)(C)c1ccc(C(=O)NCc2ccc(C(=O)Nc3cccnc3)cc2)cc1` [Example 86, 4-tert-Butyl-N-(4-(pyridin-3-ylcarbamoyl)benzyl)benzamide], in the experiment with RCC4, the IC50 is more than 20 µM.

`O=C(Nc1ccccn1)c1ccc(CNS(=O)(=O)c2ccccc2)cc1` [Example 1, 4-(Phenylsulfonamidomethyl)-N-(pyridin-2-yl)benzamide] showed an IC50 with RCC4 of more than 20 µM.

In the case of `Cc1cc(C)cc(CNCc2ccc(C(=O)Nc3cccnc3)cc2)c1` [Compound C, reference compound], the IC50 with RCC4 was more than 20 µM.

Compound `CC(C)(C)c1ccc(S(=O)(=O)NCc2cccc(C(=O)Nc3cccnc3)c2)cc1` [Example 91, 3-[(4-tert-Butylphenylsulfonamido)methyl]-N-(3-pyridinyl)benzamide] gave an IC50 in the experiment on RCC4 of more than 20 µM.

`O=C(Nc1ccncc1)c1ccc(CNS(=O)(=O)c2ccccc2)cc1` [Example 3, 4-(Phenylsulfonamidomethyl)-N-(pyridin-4-yl)benzamide] gave an IC50 in the experiment with RCC4 of more than 20 µM.

For the origin of these results see patent US20120225862A1, “HETEROARYL BENZAMIDES, COMPOSITIONS AND METHODS OF USE” (AUCKLAND UNIVSERVICES LIMITED, priority 2009, published 2012).
